The structures appear in SMILES notation. Counter-ions that a name gives are not always drawn. Positions of bridges follow the written chain, without caps; N, C: chain ends. Non-standard residues stand in square brackets, D forms with d. Residues, ends and D or L forms follow the SMILES beside them. ξ: configuration not given here. *: point of attachment. Me3N+(CH2)2O(CH2)2O(CH2)2CO = C[N+](C)(C)CCOCCOCCC(=O)*; CH2CH2OCH2CH2OCH2CH2NMe3+ = C[N+](C)(C)CCOCCOCC*; Trp(7-Me) = Cc1cccc2c(C[C@H](N)C(=O)O)c[nH]c12; dLys(Me3) = C[N+](C)(C)CCCC[C@@H](N)C(=O)O; 3Pal(5-Me) = Cc1cncc(C[C@H](N)C(=O)O)c1; 2Nal = N[C@@H](Cc1ccc2ccccc2c1)C(=O)O; AEF = NCCOc1ccc(C[C@H](N)C(=O)O)cc1; 3Pal = N[C@@H](Cc1cccnc1)C(=O)O; Ethyl(2-guanidino) = N=C(N)NCC*; Lys(Me) = CNCCCC[C@H](N)C(=O)O; Pen = CC(C)(S)[C@H](N)C(=O)O; ξLys(Me) = CNCCCCC(N)C(=O)O; X57 = C[N+]1(C)CCC(CC*)CC1; Thp = NC1(C(=O)O)CCOCC1; X3 = C[N+](C)(C)CCCCC*; Me2NCH2CH2 = CN(C)CC*; Tfa = O=C(C(F)(F)F)*; NHtBu = CC(C)(C)N*; Sar = CNCC(=O)O

Results on 10 compounds are retold here after patent publication US20260022143A1, “Cyclic Peptide Inhibitors of IL-23” (JANSSEN PHARMACEUTICA NV, priority 2022, published 2026).

A short description of series [1]: Exposed Polar Surface Area (EPSA). The series is classed as physicochemical. To be noted: SFC on Chirex 3014 column; sample 1 mM DMSO stock; read-out: EPSA. Put shortly:
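Chirex 3014 column, 35 °C, 4 mL/min; CO2/MeOH + 20 mM NH4 formate, 5→60% modifier at 20%/min. UV/MS detection. EPSA (Å^2) from retention time vs 8-standard calibration line; duplicates; 1 mM DMSO stock injected undiluted.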

For a further series, the target named is T1, IL-23R (Homo sapiens, UniProt Q5VWK5).
T1 construct: host or cells: HEK293
T1 sequence (Q5VWK5 24-629): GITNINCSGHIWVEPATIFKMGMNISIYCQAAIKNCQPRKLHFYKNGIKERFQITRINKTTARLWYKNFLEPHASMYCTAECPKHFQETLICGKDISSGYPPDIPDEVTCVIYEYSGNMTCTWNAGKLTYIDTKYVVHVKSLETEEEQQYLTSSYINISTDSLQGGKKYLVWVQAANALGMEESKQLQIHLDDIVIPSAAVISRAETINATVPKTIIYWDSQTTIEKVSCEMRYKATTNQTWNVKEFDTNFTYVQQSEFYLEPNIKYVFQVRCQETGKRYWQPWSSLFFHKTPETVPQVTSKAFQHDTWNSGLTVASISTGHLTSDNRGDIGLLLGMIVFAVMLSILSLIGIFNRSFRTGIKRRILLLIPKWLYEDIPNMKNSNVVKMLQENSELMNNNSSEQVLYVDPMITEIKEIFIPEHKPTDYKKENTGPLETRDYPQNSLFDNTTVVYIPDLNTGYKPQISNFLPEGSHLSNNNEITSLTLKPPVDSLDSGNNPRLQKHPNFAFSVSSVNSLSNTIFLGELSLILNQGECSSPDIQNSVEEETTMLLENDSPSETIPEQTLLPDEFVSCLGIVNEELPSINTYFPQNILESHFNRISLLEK
In words: IL23R Reporter Assay. The class given is cell-based. To be noted: HEK293 cells containing IL-23R, IL-12RP1 and STAT-inducible firefly luciferase reporter; 10 ng/mL IL-23 (EC90); 5 h at 37° C.; read-out: IL23R Reporter Assay. (In general: In a reporter assay the amount or activity of a reporter protein is the signal.)

Regarding `CC(=O)N(C)CCCC[C@@H]1NC(=O)[C@H](Cc2c[nH]c3c(C)cccc23)NC(=O)[C@H]([C@@H](C)O)NC(=O)[C@H](CC(=O)N(C)C)NC(=O)[C@@H](NC(=O)CCOCCOCC[N+](C)(C)C)CSSC[C@@H](C(=O)N[C@@H](Cc2ccc(OCCCCC[N+](C)(C)C)cc2)C(=O)N[C@@H](Cc2ccc3ccccc3c2)C(=O)NC2(C(=O)N[C@@H](CCCCN(C)C(C)=O)C(=O)N[C@@H](CC(N)=O)C(=O)N[C@@H](Cc3cccnc3)C(=O)N(C)CC(=O)N(C)C)CCOCC2)NC1=O` [compound 483, cPEG3aCO-C(3)-N(N(Me)2)-T-7MeW-K(NMeAc)-C(3)-TMAPF-2Nal-THP-K(NMeAc)-N-3Pya-Sar-CON(Me)2] ({Me3N+(CH2)2O(CH2)2O(CH2)2CO}-CD(NMe2)T[Trp(7-Me)][Lys(Me)](Ac)CY(X3)[2Nal][Thp][Lys(Me)](Ac)N[3Pal][Sar]-NMe2; disulfide 1-6), in series [1], the EPSA stood at 165 A^2. The IC50 at IL-23R is 3.8 nM.
`CC(=O)N(C)CCCCC(NC(=O)C1(NC(=O)[C@H](Cc2ccc3ccccc3c2)NC(=O)[C@H](Cc2ccc(OCCOCCOCC[N+](C)(C)C)cc2)NC(=O)[C@H]2NC(=O)[C@H](CCCCN(C)C(C)=O)NC(=O)[C@H](Cc3c[nH]c4c(C)cccc34)NC(=O)[C@H]([C@@H](C)O)NC(=O)[C@H](CC(=O)N(C)C)NC(=O)[C@@H](NC(=O)CCOCCOCC[N+](C)(C)C)C(C)(C)SSC2(C)C)CCOCC1)C(=O)N[C@@H](CC(N)=O)C(=O)N[C@@H](Cc1ccccc1)C(=O)N(C)CC(=O)N(C)C` (some centres unmarked) [compound 573, cPEG3aCO-Pen(3)-N(N(Me)2)-T-7MeW-K(NMeAc)-Pen(3)-APEG3F-2Nal-THP-K(NMeAc)-N-F-Sar-CON(Me)2] ({Me3N+(CH2)2O(CH2)2O(CH2)2CO}-[Pen]D(NMe2)T[Trp(7-Me)][Lys(Me)](Ac)[Pen]Y(CH2CH2OCH2CH2OCH2CH2NMe3+)[2Nal][Thp][ξLys(Me)](Ac)NF[Sar]-NMe2; disulfide 1-6): the EPSA in series [1] was 153 A^2. Also, the IC50 on IL-23R is 650 nM.
Turning to `CC(=O)N[C@@H]1C(=O)N[C@@H](C)C(=O)N[C@@H]([C@@H](C)O)C(=O)N[C@@H](Cc2c[nH]c3c(C)cccc23)C(=O)N[C@@H](C)C(=O)N[C@H](C(=O)N[C@@H](Cc2ccc(OCCN(C)C)cc2)C(=O)N[C@@H](Cc2ccc3ccccc3c2)C(=O)NC2(C(=O)N[C@@H](C)C(=O)N[C@@H](CC(N)=O)C(=O)N[C@@H](Cc3cccnc3)C(=O)N(C)CC(=O)N(C)C)CCOCC2)C(C)(C)SSC1(C)C` [compound 121] (Ac-[Pen]AT[Trp(7-Me)]A[Pen]Y(Me2NCH2CH2)[2Nal][Thp]AN[3Pal][Sar]-NMe2; disulfide 1-6), the EPSA in series [1] worked out at 145 A^2. For the same compound, the IC50 at IL-23R was 13 nM.
The corresponding values for `CC(=O)N(C)CCCC[C@@H]1NC(=O)[C@H](Cc2c[nH]c3ccccc23)NC(=O)[C@H]([C@@H](C)O)NC(=O)[C@H](CC(=O)N(C)C)NC(=O)[C@@H](NC(=O)CCOCCOCC[N+](C)(C)C)C(C)(C)SSC(C)(C)[C@@H](C(=O)N[C@@H](Cc2ccc(OCCOCCOCC[N+](C)(C)C)cc2)C(=O)N[C@@H](Cc2c[nH]c3ccccc23)C(=O)NC2(C(=O)N[C@@H](CCCCN(C)C(C)=O)C(=O)N[C@@H](CC(N)=O)C(=O)N[C@H]3Cc4cnccc4N(CC(=O)N(C)C)C3=O)CCOCC2)NC1=O` [compound 564, cPEG3aCO-Pen(3)-N(N(Me)2)-T-W-K(NMeAc)-Pen(3)-APEG3F-W-THP-K(NMeAc)-N-3Pya-Sar-CON(Me)2] are 153 A^2 and 180 nM.
Take `CC(=O)NCCCC[C@@H]1NC(=O)[C@H](Cc2c[nH]c3c(C)cccc23)NC(=O)[C@H]([C@@H](C)O)NC(=O)[C@H](CC(N)=O)NC(=O)[C@@H](NC(=O)C(COCCOCC[N+](C)(C)C)NC(C)=O)C(C)(C)SSC(C)(C)[C@@H](C(=O)N[C@@H](Cc2ccc(OCCN)cc2)C(=O)N[C@@H](Cc2ccc3ccccc3c2)C(=O)NC2(C(=O)N[C@@H](CCC(=O)O)C(=O)N[C@@H](CC(N)=O)C(=O)N[C@@H](Cc3cccnc3)C(=O)N(C)CC(N)=O)CCOCC2)NC1=O` (mixture of isomers) [compound 553, MeCO-APEG2Ser(RS)-Pen(3)-N-T-7MeW-K(Ac)-Pen(3)-AEF-2Nal-THP-E-N-3Pya-Sar-CONH2]: the EPSA in series [1] was 185 A^2. For the same compound, the IC50 on IL-23R stood at 4.5 nM.
With `CC(=O)NCCCC[C@@H]1NC(=O)[C@H](Cc2c[nH]c3c(C)cccc23)NC(=O)[C@H]([C@@H](C)O)NC(=O)[C@H](CC(N)=O)NC(=O)[C@@H](NC(=O)CCOCCOCC[N+](C)(C)C)C(C)(C)SSC(C)(C)[C@@H](C(=O)N[C@@H](Cc2ccc(OCCNC(=N)N)cc2)C(=O)N[C@@H](Cc2ccc3ccccc3c2)C(=O)NC2(C(=O)N[C@@H](CCCCNC(C)=O)C(=O)N[C@@H](CC(N)=O)C(=O)N[C@@H](Cc3cccnc3)C(=O)N(C)CC(N)=O)CCOCC2)NC1=O` [compound 471, cPEG3aCO-Pen(3)-N-T-7MeW-K(Ac)-Pen(3)-AEF(G)-2Nal-THP-K(Ac)-N-3Pya-Sar-CONH2] ({Me3N+(CH2)2O(CH2)2O(CH2)2CO}-[Pen]NT[Trp(7-Me)]K(Ac)[Pen]Y(Ethyl(2-guanidino))[2Nal][Thp]K(Ac)N[3Pal][Sar]-NH2; disulfide 1-6), the EPSA in series [1] came to 174 A^2. On IL-23R, the IC50 stood at 0.69 nM.
For `CC(=O)NCCCC[C@@H]1NC(=O)[C@H](Cc2c[nH]c3c(C)cccc23)NC(=O)[C@H]([C@@H](C)O)NC(=O)[C@H](CC(N)=O)NC(=O)[C@@H](NC(=O)[C@@H](CCCC[N+](C)(C)C)NC(C)=O)C(C)(C)SSC(C)(C)[C@@H](C(=O)N[C@@H](Cc2ccc(OCCN)cc2)C(=O)N[C@@H](Cc2ccc3ccccc3c2)C(=O)NC2(C(=O)N[C@@H](CCCCNC(C)=O)C(=O)N[C@@H](CC(N)=O)C(=O)N[C@@H](Cc3cccnc3)C(=O)N(C)CC(N)=O)CCOCC2)NC1=O` [compound 447] (Ac-[dLys(Me3)][Pen]NT[Trp(7-Me)]K(Ac)[Pen][AEF][2Nal][Thp]K(Ac)N[3Pal][Sar]-NH2; disulfide 2-7 (inferred)), the EPSA in series [1] was 171 A^2. Besides, the IC50 at IL-23R worked out at 2 nM.
Turning to `CC(=O)NCCCC[C@H](NC(=O)C1(NC(=O)[C@H](Cc2ccc3ccccc3c2)NC(=O)[C@H](Cc2ccc(OCCN)cc2)NC(=O)[C@H]2NC(=O)[C@H](CCC(=O)NC(C)(C)C)NC(=O)[C@H](Cc3c[nH]c4c(C)cccc34)NC(=O)[C@H]([C@@H](C)O)NC(=O)[C@H](CC(N)=O)NC(=O)[C@@H](NC(=O)C(F)(F)F)C(C)(C)SSC2(C)C)CCOCC1)C(=O)N[C@@H](CC(N)=O)C(=O)N[C@@H](Cc1cccnc1)C(=O)N(C)CC(N)=O` [compound 60] (Tfa-[Pen]NT[Trp(7-Me)]E(NHtBu)[Pen][AEF][2Nal][Thp]K(Ac)N[3Pal][Sar]-NH2; disulfide 1-6 (inferred)), in series [1], the EPSA is 157 A^2. For the same compound, the IC50 on IL-23R was found to be 3.5 nM.
In the same order, the values of `CC(=O)NCCCC[C@@H]1NC(=O)[C@H](Cc2c[nH]c3c(C)cccc23)NC(=O)[C@H]([C@@H](C)O)NC(=O)[C@H](CC(N)=O)NC(=O)[C@@H](NC(=O)[C@@H](CCCNC(=N)N)NC(=O)CCOCCOCC[N+](C)(C)C)C(C)(C)SSC(C)(C)[C@@H](C(=O)N[C@@H](Cc2ccc(OCCN)cc2)C(=O)N[C@@H](Cc2ccc3ccccc3c2)C(=O)NC2(C(=O)N[C@@H](CCC(=O)O)C(=O)N[C@@H](CC(N)=O)C(=O)N[C@@H](Cc3cncc(C)c3)C(=O)N(C)CC(N)=O)CCOCC2)NC1=O` [compound 473, cPEG3aCO-r-Pen(3)-N-T-7MeW-K(Ac)-Pen(3)-AEF-2Nal-THP-E-N-5MePyridinAla-Sar-CONH2] ({Me3N+(CH2)2O(CH2)2O(CH2)2CO}-[dR][Pen]NT[Trp(7-Me)]K(Ac)[Pen][AEF][2Nal][Thp]EN[3Pal(5-Me)][Sar]-NH2; disulfide 2-7) are 202 A^2 and 12 nM.
`CC(=O)N(C)CCCC[C@@H]1NC(=O)[C@H](Cc2c[nH]c3c(C)cccc23)NC(=O)[C@H]([C@@H](C)O)NC(=O)[C@H](CC(=O)N(C)C)NC(=O)[C@@H](NC(=O)CCOCCOCC[N+](C)(C)C)C(C)(C)SSC(C)(C)[C@@H](C(=O)N[C@@H](Cc2ccc(OCCC3CC[N+](C)(C)CC3)cc2)C(=O)N[C@@H](Cc2ccc3ccccc3c2)C(=O)NC2(C(=O)N[C@@H](CCCCN(C)C(C)=O)C(=O)N[C@@H](CC(N)=O)C(=O)N[C@@H](Cc3cccnc3)C(=O)N(C)CC(=O)N(C)C)CCOCC2)NC1=O` [compound 187, cPEG3aCO-Pen(3)-N(N(Me)2)-T-7MeW-K(NMeAc)-Pen(3)-4DMPEF-2Nal-THP-K(NMeAc)-N-3Pya-Sar-CON(Me)2] ({Me3N+(CH2)2O(CH2)2O(CH2)2CO}-[Pen]D(NMe2)T[Trp(7-Me)][Lys(Me)](Ac)[Pen]Y(X57)[2Nal][Thp][Lys(Me)](Ac)N[3Pal][Sar]-NMe2; disulfide 1-6): the EPSA in series [1] came to 137 A^2. Further, the IC50 at IL-23R was determined as 86 nM.
